Experimental data: paper PMC11671526, “β-caryophyllene sensitizes hepatocellular carcinoma cells to chemotherapeutics and inhibits cell malignancy through targeting MAPK signaling pathway” (Frontiers in Pharmacology, 2024)

Test system: HepG2 cells
Experiment: RNA-seq transcriptome analysis of differentially expressed genes
Assay type: cell-based, human
Settings: BCP vs control HepG2
Experimental: The quality and concentration of RNA were examined by MOPS RNA electrophoresis and Eppendorf BioSpectrometer. The transcriptome analysis was performed by BGI-Wuhan China. The RNA-seq dataset of this study is accessible in the Gene Expression Omnibus (GEO) with an access number of GSE276099. The sequence library for each sample was prepared using the BGISEQ-500 platform with a 50-bp single-end (SE50) format. […]2.2.1) was used to align the clean reads to the reference genome and alignment of the clean reads to the reference genes was carried out using Bowtie2 (v2.4.5) ([Langmead and Salzberg, 2012]; [Kim et al., 2015]). Gene expression levels were calculated by RSEM (v1.3.1) ([Li and Dewey, 2011]). Analysis of differential gene expression was performed using edgeR in the Bioconductor software package ([Robinson et al., 2010]). Using a standard protocol, the RNA samples were also examined by reverse transcription and quantitative polymerase chain reaction (RT-qPCR). In brief, for reverse transcription, total RNA (1 μg) and gDNA wiper Mix were incubated at 42°C for 2 min. The samples were immediately incubated with a master mix containing 10 pmol/μL of poly (dT) primers at 37°C for 15 min and 85°C for 5 s. To detect the expression of specific genes by qPCR analysis, gene-specific primers (shown in Supplementary Table S1) were mixed with the ChamQ Universal SYBER qPCR Master Mix and the reaction was conducted using the Roche Lightcycler 480. The GAPDH value was used to normalize the results of each gene. The RNA-seq data of BCP-treated HepG2 cells were screened for DEGs. Gene symbols were turned into Enterz ID using the org.Hs.eg.db Bio-conductor R package. The cluster profiler (v4.6.2) package was used to perform the Kyoto Encyclopedia of Genes and Genomes (KEGG) and Gene Ontology (GO) enrichment analyses ([Wu et al., 2021]). Following the Transcript per million (TPM) data of the dataset, the line chart, and heatmap were plotted using ggplot2 and pheatmap R packages, respectively.

Structure (SMILES): C=C1CC/C=C(\C)CC[C@@H]2[C@@H]1CC2(C)C [BCP, β-caryophyllene]
- logFC LIPH (gene LIPH, RNA-seq): -0.6901
- change LIPH (gene LIPH, DEG direction): Down
- logFC LOC107984590 (gene LOC107984590, RNA-seq): -1.673
- change LOC107984590 (gene LOC107984590, DEG direction): Down
- logFC LRRK1 (gene LRRK1, RNA-seq): -0.9626
- change LRRK1 (gene LRRK1, DEG direction): Down
- logFC LYSMD4 (gene LYSMD4, RNA-seq): -0.6364
- change LYSMD4 (gene LYSMD4, DEG direction): Down
- logFC MAB21L4 (gene MAB21L4, RNA-seq): 0.9293
- change MAB21L4 (gene MAB21L4, DEG direction): Up
- logFC MAFA (gene MAFA, RNA-seq): -0.8959
- change MAFA (gene MAFA, DEG direction): Down
- logFC MAGEB17 (gene MAGEB17, RNA-seq): -2.787
- change MAGEB17 (gene MAGEB17, DEG direction): Down
- logFC MALL (gene MALL, RNA-seq): -0.8293
- change MALL (gene MALL, DEG direction): Down
- logFC MAMDC2 (gene MAMDC2, RNA-seq): 1.292
- change MAMDC2 (gene MAMDC2, DEG direction): Up
- logFC MAP1A (gene MAP1A, RNA-seq): -1.186
- change MAP1A (gene MAP1A, DEG direction): Down
- logFC MAP7 (gene MAP7, RNA-seq): 0.7065
- change MAP7 (gene MAP7, DEG direction): Up
- logFC MEF2B (gene MEF2B, RNA-seq): -1.481
- change MEF2B (gene MEF2B, DEG direction): Down
- logFC METTL7A (gene METTL7A, RNA-seq): -1.025
- change METTL7A (gene METTL7A, DEG direction): Down
- logFC MFSD12 (gene MFSD12, RNA-seq): 0.7075
- change MFSD12 (gene MFSD12, DEG direction): Up
- logFC MMP17 (gene MMP17, RNA-seq): 0.8815
- change MMP17 (gene MMP17, DEG direction): Up
- logFC MMP24 (gene MMP24, RNA-seq): 1.043
- change MMP24 (gene MMP24, DEG direction): Up
- logFC MNX1 (gene MNX1, RNA-seq): -0.6432
- change MNX1 (gene MNX1, DEG direction): Down
- logFC MRPS6 (gene MRPS6, RNA-seq): -0.923
- change MRPS6 (gene MRPS6, DEG direction): Down
- logFC MTUS2 (gene MTUS2, RNA-seq): -1.542
- change MTUS2 (gene MTUS2, DEG direction): Down
- logFC MXD4 (gene MXD4, RNA-seq): -0.5803
- change MXD4 (gene MXD4, DEG direction): Down
- logFC MYEOV (gene MYEOV, RNA-seq): -0.7568
- change MYEOV (gene MYEOV, DEG direction): Down
- logFC MYH15 (gene MYH15, RNA-seq): -1.78
- change MYH15 (gene MYH15, DEG direction): Down
- logFC MYLK3 (gene MYLK3, RNA-seq): 0.5851
- change MYLK3 (gene MYLK3, DEG direction): Up
- logFC MYT1L (gene MYT1L, RNA-seq): 0.8858
- change MYT1L (gene MYT1L, DEG direction): Up
- logFC MYZAP (gene MYZAP, RNA-seq): -1.044
- change MYZAP (gene MYZAP, DEG direction): Down
- logFC NDC80 (gene NDC80, RNA-seq): 0.6133
- change NDC80 (gene NDC80, DEG direction): Up
- logFC NES (gene NES, RNA-seq): -0.6748
- change NES (gene NES, DEG direction): Down
- logFC NEXN (gene NEXN, RNA-seq): 0.7024
- change NEXN (gene NEXN, DEG direction): Up
- logFC NKD1 (gene NKD1, RNA-seq): 1.009
- change NKD1 (gene NKD1, DEG direction): Up
- logFC NKD2 (gene NKD2, RNA-seq): 0.8671
- change NKD2 (gene NKD2, DEG direction): Up
- logFC NOG (gene NOG, RNA-seq): -0.6516
- change NOG (gene NOG, DEG direction): Down
- logFC NOXO1 (gene NOXO1, RNA-seq): -0.746
- change NOXO1 (gene NOXO1, DEG direction): Down
- logFC NPIPB8 (gene NPIPB8, RNA-seq): -2.227
- change NPIPB8 (gene NPIPB8, DEG direction): Down
- logFC NR4A1 (gene NR4A1, RNA-seq): 0.6275
- change NR4A1 (gene NR4A1, DEG direction): Up
- logFC NR4A3 (gene NR4A3, RNA-seq): 0.9047
- change NR4A3 (gene NR4A3, DEG direction): Up
- logFC OASL (gene OASL, RNA-seq): -1.216
- change OASL (gene OASL, DEG direction): Down
- logFC P4HA3 (gene P4HA3, RNA-seq): 1.2167
- change P4HA3 (gene P4HA3, DEG direction): Up
- logFC PAK6 (gene PAK6, RNA-seq): -1.538
- change PAK6 (gene PAK6, DEG direction): Down
- logFC PALM3 (gene PALM3, RNA-seq): -0.7485
- change PALM3 (gene PALM3, DEG direction): Down
- logFC PAPPA (gene PAPPA, RNA-seq): 0.997
- change PAPPA (gene PAPPA, DEG direction): Up
- logFC PAQR5 (gene PAQR5, RNA-seq): -0.667
- change PAQR5 (gene PAQR5, DEG direction): Down
- logFC PCSK1 (gene PCSK1, RNA-seq): 0.7709
- change PCSK1 (gene PCSK1, DEG direction): Up
- logFC PDE7B (gene PDE7B, RNA-seq): 0.7688
- change PDE7B (gene PDE7B, DEG direction): Up
- logFC PDK1 (gene PDK1, RNA-seq): 0.6017
- change PDK1 (gene PDK1, DEG direction): Up
- logFC PDK4 (gene PDK4, RNA-seq): 1.109
- change PDK4 (gene PDK4, DEG direction): Up
- logFC PI3 (gene PI3, RNA-seq): -1.544
- change PI3 (gene PI3, DEG direction): Down
- logFC PLD1 (gene PLD1, RNA-seq): 0.6612
- change PLD1 (gene PLD1, DEG direction): Up
- logFC PLEKHG1 (gene PLEKHG1, RNA-seq): 0.983
- change PLEKHG1 (gene PLEKHG1, DEG direction): Up
- logFC PNPLA6 (gene PNPLA6, RNA-seq): -0.6244
- change PNPLA6 (gene PNPLA6, DEG direction): Down
- logFC PPP1R15A (gene PPP1R15A, RNA-seq): 0.636
- change PPP1R15A (gene PPP1R15A, DEG direction): Up
- logFC PRICKLE2 (gene PRICKLE2, RNA-seq): -2.048
- change PRICKLE2 (gene PRICKLE2, DEG direction): Down
- logFC PRKCZ (gene PRKCZ, RNA-seq): 0.789
- change PRKCZ (gene PRKCZ, DEG direction): Up
- logFC PRRG4 (gene PRRG4, RNA-seq): -0.7407
- change PRRG4 (gene PRRG4, DEG direction): Down
- logFC PSD4 (gene PSD4, RNA-seq): -0.8285
- change PSD4 (gene PSD4, DEG direction): Down
- logFC PTGS1 (gene PTGS1, RNA-seq): -1.083
- change PTGS1 (gene PTGS1, DEG direction): Down
- logFC PXDN (gene PXDN, RNA-seq): 0.6603
- change PXDN (gene PXDN, DEG direction): Up
- logFC RAB17 (gene RAB17, RNA-seq): -1.103
- change RAB17 (gene RAB17, DEG direction): Down
- logFC RAB43 (gene RAB43, RNA-seq): -0.73
- change RAB43 (gene RAB43, DEG direction): Down
- logFC RAPGEF3 (gene RAPGEF3, RNA-seq): -0.8733
